From article PMC7956560, “New 3-Aryl-2-(2-thienyl)acrylonitriles with High Activity Against Hepatoma Cells” (International Journal of Molecular Sciences, 2021)
pIC50: −log10 of the molar value.

What was measured:
FGFR = assay: Enzymatic kinase assay (Eurofins KinaseProfiler); format: biochemical, human; conditions: 10 µM compound, cell-free
Experimental: (§1) The kinase inhibiting potency of compound 1a, 1b and 1c (10 µM) was screened in a cell-free kinase assay, which consisted of a custom panel of 43 human protein kinases for 1c (listed in Figure 5A), as well as a subpanel of six kinases for 1a and 1b (Figure 5B). The initial panel was chosen to screen the lead compound 1c based on the union of two strategies. A total of 29 kinases were selected based on the correlated results of three in silico target prediction methods including structure- as well as ligand-based techniques and 20 kinases because of their relevance for HCC (note that six kinases were part of both strategies).
(§2) The assay was performed by Eurofins KinaseProfilerTM service (Eurofins, France) and the determination of enzymatic activity was assessed as previously described. Additionally, an IC50 determination of compound 1c against the VEGFR-2 was performed with a concentration range of 0.003 to 30 µM.

PDGFR = assay: Enzymatic kinase assay (Eurofins KinaseProfiler); format: biochemical, human; conditions: 10 µM compound, cell-free
Experimental: as §1, §2

HepG2 cells [1] = assay: Colony-formation assay; format: cell-based, human
Experimental: HepG2 cells were seeded in 6-well plates at a density of 300 cells/well and allowed to attach overnight. […] Then, the plates were washed twice with PBS, fixed with 4% formaldehyde for 1 h, and stained with 0.5% crystal violet for 3 min. Excessive crystal violet was washed out and the colonies were counted under the microscope. A colony was defined as a cell aggregate with 50 or more cells. Representative images were taken with a kappa digital camera system (Kappa Optronics GmbH, Germany). A total of n = 3 experiments were performed, and significance was tested by one-way ANOVA assays.

[2] = tested on: HepG2-tumors grown on membranes of fertilized chicken eggs; assay: Chorioallantoic membrane (CAM) assay; format: in vivo
Experimental: The chorioallantoic membrane (CAM) assay was performed as described previously. Fertilized chicken eggs (Gallus gallus) were obtained from commercial sources (Valo GmbH, Germany) and incubated in a humid environment at 38 °C. On day 3 of the egg development, a window was cut in the eggshell to access the developing vascular network of the CAM. At day 10 of chicken embryo development, a sterile silicon ring (10 mm diameter) was placed on the CAM and tumor plugs of 3 × 10^6 HepG2 cells in 20 µL Matrigel (BD Biosciences) with reduced growth factors were placed inside the silicon ring. After 24 h at 38 °C in an incubator, the tumor plaques attached and connected to the (tumor-)feeding CAM microvasculature. Then, the tumor plaques were topically treated with either PBS (negative control) or PBS containing rising concentrations of 1b (0–10 µM), 1c (0–2.5 µM) or sorafenib (10 μM) for 3 days. Tumor growth and viability of the embryo were controlled daily by stereo microscopy. After 72 h of treatment, the tumors were recovered for weighing and pictures were taken using a stereomicroscope equipped with a Kappa digital camera system (Kappa Optronics GmbH, Germany). For data analysis, the tumor weight of 1c-treated and untreated control tumors was determined and the mean weight of treated vs. untreated tumors of 11 eggs for each condition was calculated. Statistical significance evaluated by one-way ANOVA tests.

[3] = tested on: caspase-3 activity of HepG2 cells; assay: Apoptosis-specific caspase-3 activity; format: cell-based, human; conditions: HepG2, 1 and 10 µM, 24 h
Experimental: Changes in caspase-3 activity were measured by the cleavage of the fluorogenic substrate AC-DEVD-AMC (EMD Millipore, Billerica, MA, USA), as described previously. After 24 h of incubation with 1a, 1b, 1c, 1e and sorafenib (1 and 10 µM) the cells were harvested and lysed with lysis buffer. Subsequently, the lysates were incubated for 1 h at 37 °C with a substrate solution containing 20 μg/mL AC-DEVD-AMC, 20 mM HEPES, 10% glycerol and 2 mM DTT at pH 7.5. Substrate cleavage was measured fluorometrically using a Varioskan Flash Fluorometer (Thermo Fisher Scientific, Waltham, MA, USA; filter sets: ex 360/40 nm, em 460/10 nm). n = 3 independent measurements were performed in triplicate, and data are given as the mean percentage increase ± SD above control, which was set 100%.

HepG2 cells [4] = assay: LDH release assay (unspecific cytotoxicity); format: cell-based, human; conditions: HepG2, 0.5 and 10 µM, 12 or 24 h
Experimental: Unspecific cytotoxicity induced by treatment with 0.5 µM and 10 µM of 1a, 1b, 1c and sorafenib (LC Laboratories, Woburn, MA, USA) was determined by measuring the release of lactate dehydrogenase (LDH) from HepG2 cells into the supernatant after 12 and 24 h (Cytotoxicity Detection KitPLUS LDH, Roche Diagnostics GmbH, Mannheim, Germany). The supernatant of treated samples was collected, and adherent non-treated cells were lysed with 2% Triton X-100 for 10 min to determine the maximum LDH release. All samples were mixed with catalyst and dye solution for 30 min, resulting in the formation of formazan dye proportional to LDH enzyme activity. The absorbance was measured at 490/630 nm using an ELISA reader (Dynex Technologies, Denkendorf, Germany) and cytotoxicity was determined by subtracting the percentage of LDH release under control conditions of those from treated samples. Experiments were performed in duplicate and data are given as mean percentage changes ± SD as compared to controls of n = 3 experiments.

VEGFR-2 (KDR) = biological target: T1, VEGFR-2 (KDR) (Homo sapiens, UniProt P35968); assay: Enzymatic kinase assay (Eurofins KinaseProfiler); format: biochemical
T1 construct: purchased Eurofins KinaseProfiler service (Eurofins, France)
T1 sequence (P35968 20-1356): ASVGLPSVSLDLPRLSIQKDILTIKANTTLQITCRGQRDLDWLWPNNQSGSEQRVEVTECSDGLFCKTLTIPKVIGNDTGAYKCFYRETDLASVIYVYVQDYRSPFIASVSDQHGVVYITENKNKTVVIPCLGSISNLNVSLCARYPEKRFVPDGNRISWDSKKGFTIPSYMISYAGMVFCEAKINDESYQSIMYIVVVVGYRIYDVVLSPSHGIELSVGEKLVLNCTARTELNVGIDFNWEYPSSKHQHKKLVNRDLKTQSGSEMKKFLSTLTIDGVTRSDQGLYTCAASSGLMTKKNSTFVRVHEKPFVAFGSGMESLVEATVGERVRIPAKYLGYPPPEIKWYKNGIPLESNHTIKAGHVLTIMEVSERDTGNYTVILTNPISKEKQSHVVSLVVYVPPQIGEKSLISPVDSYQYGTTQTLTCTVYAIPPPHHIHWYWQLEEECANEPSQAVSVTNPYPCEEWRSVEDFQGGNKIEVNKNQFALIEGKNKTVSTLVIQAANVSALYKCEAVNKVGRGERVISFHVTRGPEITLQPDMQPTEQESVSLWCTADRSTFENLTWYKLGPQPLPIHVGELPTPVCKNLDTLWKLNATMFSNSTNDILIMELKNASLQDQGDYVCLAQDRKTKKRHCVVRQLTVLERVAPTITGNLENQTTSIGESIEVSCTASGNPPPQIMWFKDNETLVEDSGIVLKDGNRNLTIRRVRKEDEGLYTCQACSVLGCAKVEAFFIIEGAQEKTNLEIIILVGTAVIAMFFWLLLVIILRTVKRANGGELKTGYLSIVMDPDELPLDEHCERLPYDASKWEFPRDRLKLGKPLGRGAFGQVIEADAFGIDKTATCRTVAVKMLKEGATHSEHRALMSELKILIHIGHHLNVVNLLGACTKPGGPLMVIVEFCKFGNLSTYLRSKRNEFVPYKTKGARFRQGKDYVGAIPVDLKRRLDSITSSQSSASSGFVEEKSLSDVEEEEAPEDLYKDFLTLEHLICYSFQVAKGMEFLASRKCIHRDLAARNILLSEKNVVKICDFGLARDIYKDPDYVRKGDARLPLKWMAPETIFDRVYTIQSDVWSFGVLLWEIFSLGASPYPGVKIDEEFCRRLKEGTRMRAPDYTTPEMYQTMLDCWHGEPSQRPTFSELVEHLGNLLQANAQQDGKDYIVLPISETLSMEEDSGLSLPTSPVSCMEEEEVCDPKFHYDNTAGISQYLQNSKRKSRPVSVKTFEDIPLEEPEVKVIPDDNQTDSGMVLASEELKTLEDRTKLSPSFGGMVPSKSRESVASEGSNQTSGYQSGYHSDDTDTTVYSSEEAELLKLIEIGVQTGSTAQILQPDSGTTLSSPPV
Experimental: as §1, §2

IGF-1R = biological target: T2, IGF-1R (Homo sapiens, UniProt P08069); assay: Enzymatic kinase assay (Eurofins KinaseProfiler); format: biochemical; conditions: 10 µM compound, cell-free
T2 construct: purchased Eurofins KinaseProfiler service (Eurofins, France)
T2 sequence (P08069 31-1367): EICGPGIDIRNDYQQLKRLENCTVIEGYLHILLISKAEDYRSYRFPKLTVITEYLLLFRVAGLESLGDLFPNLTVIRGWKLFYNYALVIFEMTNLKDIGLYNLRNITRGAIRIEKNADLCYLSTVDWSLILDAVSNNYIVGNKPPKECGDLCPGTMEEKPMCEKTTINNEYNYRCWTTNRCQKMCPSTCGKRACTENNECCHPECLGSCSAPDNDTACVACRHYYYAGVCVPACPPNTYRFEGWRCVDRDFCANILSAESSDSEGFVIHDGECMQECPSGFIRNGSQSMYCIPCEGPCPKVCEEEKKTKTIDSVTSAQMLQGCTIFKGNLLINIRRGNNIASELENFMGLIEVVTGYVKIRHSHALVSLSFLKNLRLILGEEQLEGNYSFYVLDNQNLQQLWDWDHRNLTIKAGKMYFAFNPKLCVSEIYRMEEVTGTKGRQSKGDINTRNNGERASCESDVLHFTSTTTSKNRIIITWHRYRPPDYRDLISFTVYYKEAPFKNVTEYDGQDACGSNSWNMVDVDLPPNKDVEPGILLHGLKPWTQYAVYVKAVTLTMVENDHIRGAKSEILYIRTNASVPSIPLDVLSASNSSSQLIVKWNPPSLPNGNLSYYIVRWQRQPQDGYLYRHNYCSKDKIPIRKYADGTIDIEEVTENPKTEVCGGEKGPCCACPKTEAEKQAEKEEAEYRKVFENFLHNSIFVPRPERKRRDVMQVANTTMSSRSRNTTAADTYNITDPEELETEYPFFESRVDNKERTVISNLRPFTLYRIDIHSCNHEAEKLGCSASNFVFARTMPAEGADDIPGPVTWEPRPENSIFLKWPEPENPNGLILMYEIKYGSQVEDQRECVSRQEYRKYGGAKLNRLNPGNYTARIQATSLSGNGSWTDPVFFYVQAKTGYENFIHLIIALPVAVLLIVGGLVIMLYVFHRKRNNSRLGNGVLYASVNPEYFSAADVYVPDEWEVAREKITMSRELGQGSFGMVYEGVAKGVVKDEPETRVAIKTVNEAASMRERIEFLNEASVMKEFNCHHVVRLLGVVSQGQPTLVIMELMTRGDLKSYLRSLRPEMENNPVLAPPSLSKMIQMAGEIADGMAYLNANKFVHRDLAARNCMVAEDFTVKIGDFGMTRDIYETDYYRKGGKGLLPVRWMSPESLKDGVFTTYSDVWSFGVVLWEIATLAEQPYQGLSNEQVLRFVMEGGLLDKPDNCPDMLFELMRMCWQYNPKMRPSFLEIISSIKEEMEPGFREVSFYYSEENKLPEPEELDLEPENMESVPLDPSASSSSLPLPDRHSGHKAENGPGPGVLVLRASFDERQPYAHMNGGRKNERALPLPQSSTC
Experimental: as §1, §2

CLK1 = biological target: T3, CLK1 (Homo sapiens, UniProt P49759); assay: Enzymatic kinase assay (Eurofins KinaseProfiler); format: biochemical; conditions: 10 µM compound, cell-free
T3 construct: purchased Eurofins KinaseProfiler service (Eurofins, France)
Experimental: as §1, §2

EGFR = biological target: T4, EGFR (Homo sapiens, UniProt P00533); assay: Enzymatic kinase assay (Eurofins KinaseProfiler); format: biochemical; conditions: 10 µM compound, cell-free
T4 construct: purchased Eurofins KinaseProfiler service (Eurofins, France)
Experimental: as §1, §2

VEGFR-1 = biological target: T5, VEGFR-1 (Homo sapiens, UniProt P17948); assay: Enzymatic kinase assay (Eurofins KinaseProfiler); format: biochemical; conditions: 10 µM compound, cell-free
T5 construct: purchased Eurofins KinaseProfiler service (Eurofins, France)
T5 sequence (P17948 27-1338): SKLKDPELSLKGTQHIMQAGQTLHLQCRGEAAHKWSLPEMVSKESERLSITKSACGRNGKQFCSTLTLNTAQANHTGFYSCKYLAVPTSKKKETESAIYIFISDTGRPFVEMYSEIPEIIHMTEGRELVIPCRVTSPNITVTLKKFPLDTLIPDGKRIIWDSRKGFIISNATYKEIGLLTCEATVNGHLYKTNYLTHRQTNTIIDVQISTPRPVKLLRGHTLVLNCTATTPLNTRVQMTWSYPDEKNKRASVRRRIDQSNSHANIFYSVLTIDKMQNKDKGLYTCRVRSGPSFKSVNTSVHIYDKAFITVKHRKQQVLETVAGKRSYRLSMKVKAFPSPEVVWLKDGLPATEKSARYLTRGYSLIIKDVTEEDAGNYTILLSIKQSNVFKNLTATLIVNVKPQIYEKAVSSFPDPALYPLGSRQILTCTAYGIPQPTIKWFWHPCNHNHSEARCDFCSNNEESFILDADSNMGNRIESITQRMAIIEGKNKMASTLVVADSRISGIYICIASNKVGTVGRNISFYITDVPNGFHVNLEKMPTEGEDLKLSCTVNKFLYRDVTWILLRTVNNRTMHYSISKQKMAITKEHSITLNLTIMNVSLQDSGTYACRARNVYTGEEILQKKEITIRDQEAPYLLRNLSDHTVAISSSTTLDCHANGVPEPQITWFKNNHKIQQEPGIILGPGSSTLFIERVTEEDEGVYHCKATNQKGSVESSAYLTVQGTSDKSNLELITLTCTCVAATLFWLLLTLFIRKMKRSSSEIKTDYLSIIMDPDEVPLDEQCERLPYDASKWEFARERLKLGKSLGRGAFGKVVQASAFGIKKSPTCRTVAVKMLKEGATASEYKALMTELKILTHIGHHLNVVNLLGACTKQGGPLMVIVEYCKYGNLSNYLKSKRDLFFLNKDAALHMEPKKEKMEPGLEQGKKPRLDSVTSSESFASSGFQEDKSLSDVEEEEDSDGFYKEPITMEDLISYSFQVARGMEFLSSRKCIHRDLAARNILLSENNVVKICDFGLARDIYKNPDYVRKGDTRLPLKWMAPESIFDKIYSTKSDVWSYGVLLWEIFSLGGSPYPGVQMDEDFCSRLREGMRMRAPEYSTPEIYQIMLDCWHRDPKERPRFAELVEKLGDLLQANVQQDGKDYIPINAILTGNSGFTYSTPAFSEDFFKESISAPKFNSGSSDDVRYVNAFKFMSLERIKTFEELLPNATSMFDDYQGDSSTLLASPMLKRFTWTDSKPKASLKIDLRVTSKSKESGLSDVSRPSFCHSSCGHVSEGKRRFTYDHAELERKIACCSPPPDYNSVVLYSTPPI
Experimental: as §1, §2

c-KIT = biological target: T6, c-KIT (Homo sapiens, UniProt P10721); assay: Enzymatic kinase assay (Eurofins KinaseProfiler); format: biochemical; conditions: 10 µM compound, cell-free
T6 construct: purchased Eurofins KinaseProfiler service (Eurofins, France)
T6 sequence (P10721 26-976): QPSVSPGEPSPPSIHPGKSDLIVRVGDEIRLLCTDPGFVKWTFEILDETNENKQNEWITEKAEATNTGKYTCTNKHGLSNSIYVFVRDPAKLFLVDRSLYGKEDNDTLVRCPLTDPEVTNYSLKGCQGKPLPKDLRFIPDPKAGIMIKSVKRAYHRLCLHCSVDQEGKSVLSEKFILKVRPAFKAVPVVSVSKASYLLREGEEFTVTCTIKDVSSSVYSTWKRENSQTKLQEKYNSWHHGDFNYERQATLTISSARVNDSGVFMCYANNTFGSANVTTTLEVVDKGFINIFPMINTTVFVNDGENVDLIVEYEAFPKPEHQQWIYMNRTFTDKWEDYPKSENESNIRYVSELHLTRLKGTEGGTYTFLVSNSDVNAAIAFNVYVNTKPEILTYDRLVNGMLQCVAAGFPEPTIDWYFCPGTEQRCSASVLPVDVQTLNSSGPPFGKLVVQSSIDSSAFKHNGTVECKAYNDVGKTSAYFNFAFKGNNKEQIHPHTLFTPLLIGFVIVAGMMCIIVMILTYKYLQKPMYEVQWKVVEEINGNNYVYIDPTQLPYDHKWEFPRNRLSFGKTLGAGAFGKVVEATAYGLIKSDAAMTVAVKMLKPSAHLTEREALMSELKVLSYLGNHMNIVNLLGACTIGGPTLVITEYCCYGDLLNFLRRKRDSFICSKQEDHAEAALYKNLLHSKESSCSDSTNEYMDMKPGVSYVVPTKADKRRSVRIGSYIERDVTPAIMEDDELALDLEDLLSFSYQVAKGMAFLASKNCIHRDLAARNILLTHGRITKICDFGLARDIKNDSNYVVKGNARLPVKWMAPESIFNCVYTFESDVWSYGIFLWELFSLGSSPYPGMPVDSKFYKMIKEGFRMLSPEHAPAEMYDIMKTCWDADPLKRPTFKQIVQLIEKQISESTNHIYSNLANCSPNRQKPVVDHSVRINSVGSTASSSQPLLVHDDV
Experimental: as §1, §2

Pim-2 = biological target: T7, Pim-2 (Homo sapiens, UniProt Q9P1W9); assay: Enzymatic kinase assay (Eurofins KinaseProfiler); format: biochemical; conditions: 10 µM compound, cell-free
T7 construct: purchased Eurofins KinaseProfiler service (Eurofins, France)
Experimental: as §1, §2

Pim-1 = biological target: T8, Pim-1 (Homo sapiens, UniProt P11309); assay: Enzymatic kinase assay (Eurofins KinaseProfiler); format: biochemical; conditions: 10 µM compound, cell-free
T8 construct: purchased Eurofins KinaseProfiler service (Eurofins, France)
Experimental: as §1, §2

COc1ccc(C=C(C#N)c2cccs2)cc1O [Compound 1c, 2-[1-Cyano-2-(3-hydroxy-4-methoxyphenyl)-(E)-ethenyl)]-thiophene]
inhibition of FGFR (in words) (FGFR): no relevant inhibition
inhibition of PDGFR (in words) (PDGFR): no relevant inhibition
effect on HepG2 colony formation (in words) (HepG2 cells [1]; 1, 5, 10 µM, 14 days): significantly inhibited HepG2 colony formation
inhibition of colony formation (HepG2 cells [1]; HepG2, after two weeks): ~100%
tumor weight after treatment (in words) ([2]; extracted tumors after 3 days of treatment, 1c 0–2.5 µM): significant mass reduction
tumor reduction vs PBS-treated controls (in words) ([2]; topical treatment 72 h, 1b 0–10 µM, 1c 0–2.5 µM, sorafenib 10 µM): pronounced tumor reductions
tolerability, mortality and development of chicken embryos ([2]; treated vs untreated eggs): well tolerated
caspase-3 activity (in words) [3]: dose-dependently induced caspase-3 activity
LDH release / unspecific cytotoxicity (in words) (HepG2 cells [4]): do not exert considerable unspecific cytotoxicity
inhibition at 10 µM (VEGFR-2 (KDR); 10 µM compound, cell-free): 89%
pIC50 (VEGFR-2 (KDR); concentration range 0.003 to 30 µM, read-out: IC50 against VEGFR-2): 5.48
inhibition of IGF-1R (in words) (IGF-1R): no relevant inhibition
inhibition at 10 µM (CLK1): 69%
inhibition of EGFR (in words) (EGFR): no relevant inhibition
inhibition at 10 µM (VEGFR-1): 75%
inhibition at 10 µM (c-KIT): 61%
inhibition at 10 µM (Pim-2): 60%
inhibition at 10 µM (Pim-1): 71%
